Reference: PMC12040169 (PLOS Biology, 2025)

Assay: in vitro
Conditions: human, hela cells, % viability

CCCc1[nH]nc(O)c1Cc1cc(C(F)(F)F)ccc1Cl [CBK075032]
viability at 28.5 h, 10 µM: 96.9%

CCCc1[nH]nc(O)c1Cc1ccc(C(C)C)cc1 [CBK075033]
viability at 28.5 h, 10 µM: 106%

CCCc1[nH]nc(O)c1Cc1ccccc1-c1ccccc1 [CBK075034]
viability at 28.5 h, 10 µM: 97.2%

CC(C)(C)c1nn(CC2CCCCC2)c(=N)s1 [CBK075042]
viability at 28.5 h, 10 µM: 96.2%

CC(C)(C)c1nnc(NCC2CCCCC2)s1 [CBK075043]
viability at 28.5 h, 10 µM: 101%

CCc1nnc(NCC2CCCCC2)s1 [CBK075044]
viability at 28.5 h, 10 µM: 88.1%

COc1ccc(C(NC(=O)[C@H]2CCCN2C(=O)NCc2ccccc2C)c2ccccc2C)cn1 (stereo partly drawn) [CBK075051]
viability at 28.5 h, 10 µM: 90.9%

COc1ccc(C(NC(=O)[C@H]2CCCN2C(=O)Cc2cccs2)c2ccccc2C)cn1 (stereo partly drawn) [CBK075053]
viability at 28.5 h, 10 µM: 87%

CCCc1[nH]nc(O)c1CCc1cccc(OC)c1OC [CBK075078]
viability at 28.5 h, 10 µM: 97%

CCCc1[nH]nc(O)c1CCc1ccccc1F [CBK075080]
viability at 28.5 h, 10 µM: 88.5%

CCCc1[nH]nc(O)c1CCc1ccccc1C(F)(F)F [CBK075081]
viability at 28.5 h, 10 µM: 93.9%

CCCCNC(=S)N1CC[C@@H]2CN(C)C[C@]2(c2ccc(OC)c(OC)c2)C1 [CBK075101T]
viability at 28.5 h, 10 µM: 100%

COc1ccc([C@]23CN(C)C[C@H]2CCN(C(=O)c2cccc(Br)c2)C3)cc1OC [CBK075111T]
viability at 28.5 h, 10 µM: 96.7%

CCCc1[nH]nc(O)c1-c1cccc2ccccc12 [CBK075125]
viability at 28.5 h, 10 µM: 94%

COc1ccccc1-c1c(O)n[nH]c1CCC1CCCC1 [CBK075128]
viability at 28.5 h, 10 µM: 97.5%

CC(C)Cc1[nH]nc(O)c1-c1ccccc1 [CBK075134]
viability at 28.5 h, 10 µM: 103%

CCCc1[nH]nc(O)c1-c1ccc(OC)cc1 [CBK075135]
viability at 28.5 h, 10 µM: 96.1%

C=CCN1C(=O)C2(CC(=O)N(C)C2=O)c2ccccc21 (stereo not drawn) [CBK075137]
viability at 28.5 h, 10 µM: 93.6%

CCN1C(=O)CC2(C1=O)C(=O)N(CC)c1ccc(C)cc12 (stereo not drawn) [CBK075140]
viability at 28.5 h, 10 µM: 99.4%

COc1ccc2c(c1)C1(CC(=O)N(C)C1=O)C(=O)N2C (stereo not drawn) [CBK075146]
viability at 28.5 h, 10 µM: 115%

COc1ccc2c(c1)C1(CC(=O)N(CCC3CCCCC3)C1=O)C(=O)N2C (stereo not drawn) [CBK075147]
viability at 28.5 h, 10 µM: 120%

COc1ccc2c(c1)C1(CC(=O)N(Cc3ccc(OC)c(OC)c3)C1=O)C(=O)N2C (stereo not drawn) [CBK075157]
viability at 28.5 h, 10 µM: 94.4%

C=CCN1C(=O)CC2(C1=O)C(=O)N(C)c1ccc(OC)cc12 (stereo not drawn) [CBK075158]
viability at 28.5 h, 10 µM: 101%

C=CCN1C(=O)C2(CC(=O)N(CCC3CCCCC3)C2=O)c2ccccc21 (stereo not drawn) [CBK075160]
viability at 28.5 h, 10 µM: 107%

CN1C(=O)CC2(C1=O)C(=O)N(Cc1ccccc1)c1ccc(F)cc12 (stereo not drawn) [CBK075163]
viability at 28.5 h, 10 µM: 90.5%

COc1ccc2c(c1)C1(CC(=O)N(CCOc3ccccc3)C1=O)C(=O)N2C (stereo not drawn) [CBK075168]
viability at 28.5 h, 10 µM: 95.2%

COc1ccc(CN2C(=O)CC3(C2=O)C(=O)N(Cc2ccccc2)c2ccc(F)cc23)cc1OC (stereo not drawn) [CBK075174]
viability at 28.5 h, 10 µM: 108%

O=C1CC2(C(=O)N1CCC1CCCCC1)C(=O)N(Cc1ccccc1)c1ccc(F)cc12 (stereo not drawn) [CBK075175]
viability at 28.5 h, 10 µM: 91%

CNC(=O)CN1C(=O)CC2(C1=O)C(=O)N(C)c1ccc(OC)cc12 (stereo not drawn) [CBK075190]
viability at 28.5 h, 10 µM: 91.5%

COc1cccc(CCN2C(=O)CC3(C2=O)C(=O)N(C)c2ccc(OC)cc23)c1 (stereo not drawn) [CBK075191]
viability at 28.5 h, 10 µM: 94.6%

COc1ccc2c(c1)C1(CC(=O)N(CC3CCCCC3)C1=O)C(=O)N2C (stereo not drawn) [CBK075201]
viability at 28.5 h, 10 µM: 100%

CCN1C(=O)C2(CC(=O)N(CC3CCCCC3)C2=O)c2cc(C)ccc21 (stereo not drawn) [CBK075216]
viability at 28.5 h, 10 µM: 98.2%

C=CCN1C(=O)C2(CC(=O)N(CC(=O)N(C)C)C2=O)c2cc(OC)ccc21 (stereo not drawn) [CBK075227]
viability at 28.5 h, 10 µM: 92.3%

CN1C(=O)C2(CC(=O)N(CCC3CCCCC3)C2=O)c2cc(Cl)ccc21 (stereo not drawn) [CBK075231]
viability at 28.5 h, 10 µM: 92%

CN(C)C(=O)CN1C(=O)CC2(C1=O)C(=O)N(C)c1ccc(Cl)cc12 (stereo not drawn) [CBK075232]
viability at 28.5 h, 10 µM: 90.2%

CCN1C(=O)C2(CC(=O)N(CCOC)C2=O)c2cc(Cl)ccc21 (stereo not drawn) [CBK075244]
viability at 28.5 h, 10 µM: 121%

CN1C(=O)CC2(C1=O)C(=O)N(C)c1ccc(F)cc12 (stereo not drawn) [CBK075290]
viability at 28.5 h, 10 µM: 105%

C=CCN1C(=O)C2(CC(=O)N(CCCN(C)S(C)(=O)=O)C2=O)c2cc(F)ccc21 (stereo not drawn) [CBK075319]
viability at 28.5 h, 10 µM: 100%

COCCN1C(=O)C2(CC(=O)N(CCc3scnc3C)C2=O)c2cc(Cl)ccc21 (stereo not drawn) [CBK075321]
viability at 28.5 h, 10 µM: 93.6%

COCCN1C(=O)C2(CC(=O)N(CCOc3ccccc3)C2=O)c2ccccc21 (stereo not drawn) [CBK075322]
viability at 28.5 h, 10 µM: 98.5%

COCCN1C(=O)C2(CC(=O)N(CC(=O)C(C)(C)C)C2=O)c2ccccc21 (stereo not drawn) [CBK075324]
viability at 28.5 h, 10 µM: 118%

CN(C)C(=O)CCCN1C(=O)CC2(C1=O)C(=O)N(C)c1ccc(F)cc12 (stereo not drawn) [CBK075380]
viability at 28.5 h, 10 µM: 103%

COCCN1C(=O)C2(CC(=O)N(C)C2=O)c2ccccc21 (stereo not drawn) [CBK075387]
viability at 28.5 h, 10 µM: 102%

CNC(=O)CN1C(=O)CC2(C1=O)C(=O)N(CCOC)c1ccc(C)cc12 (stereo not drawn) [CBK075401]
viability at 28.5 h, 10 µM: 97.1%

CN1C(=O)CC2(C1=O)C(=O)N(CCCCOc1ccccc1)c1ccc(F)cc12 (stereo not drawn) [CBK075408]
viability at 28.5 h, 10 µM: 96%

C=CCN1C(=O)CC2(C1=O)C(=O)N(CCn1cnc3c1c(=O)n(C)c(=O)n3C)c1ccc(Cl)cc12 (stereo not drawn) [CBK075410]
viability at 28.5 h, 10 µM: 94.8%

C=CCN1C(=O)CC2(C1=O)C(=O)N(CCCn1c(=O)n(C)c3ccccc31)c1ccc(Cl)cc12 (stereo not drawn) [CBK075411]
viability at 28.5 h, 10 µM: 94.6%

CN1C(=O)CC2(C1=O)C(=O)N(CC(=O)c1ccccc1)c1ccc(F)cc12 (stereo not drawn) [CBK075420]
viability at 28.5 h, 10 µM: 95.4%

COCCN1C(=O)C2(CC(=O)N(CC(=O)N(C)C)C2=O)c2cc(F)ccc21 (stereo not drawn) [CBK075428]
viability at 28.5 h, 10 µM: 104%

COc1ccccc1OCCCN1C(=O)C2(CC(=O)N(C)C2=O)c2cc(F)ccc21 (stereo not drawn) [CBK075430]
viability at 28.5 h, 10 µM: 88.2%

C=CCN1C(=O)CC2(C1=O)C(=O)N(CCCN(C)S(C)(=O)=O)c1ccc(Cl)cc12 (stereo not drawn) [CBK075432]
viability at 28.5 h, 10 µM: 97.3%

C=CCN1C(=O)CC2(C1=O)C(=O)N(Cc1nnc(-c3ccc(C)cc3)o1)c1ccc(Cl)cc12 (stereo not drawn) [CBK075434]
viability at 28.5 h, 10 µM: 104%

CN1C(=O)CC2(C1=O)C(=O)N(CCCn1c(=O)n(C)c3ccccc31)c1ccc(F)cc12 (stereo not drawn) [CBK075441]
viability at 28.5 h, 10 µM: 110%

CN1C(=O)CC2(C1=O)C(=O)N(Cc1nc(-c3ccc(Cl)cc3)no1)c1ccc(F)cc12 (stereo not drawn) [CBK075442]
viability at 28.5 h, 10 µM: 87.8%

CN1C(=O)CC2(C1=O)C(=O)N(CCN1C(=O)c3ccccc3C1=O)c1ccc(F)cc12 (stereo not drawn) [CBK075451]
viability at 28.5 h, 10 µM: 89.5%

Cc1ccc(-c2nnc(CN3C(=O)C4(CC(=O)N(C)C4=O)c4cc(F)ccc43)o2)cc1 (stereo not drawn) [CBK075453]
viability at 28.5 h, 10 µM: 110%

CN1C(=O)C2(CC(=O)N(CCC3CCCCC3)C2=O)c2ccccc21 (stereo not drawn) [CBK075461]
viability at 28.5 h, 10 µM: 109%

C=CCN1C(=O)CC2(C1=O)C(=O)N(C)c1ccccc12 (stereo not drawn) [CBK075472]
viability at 28.5 h, 10 µM: 99%

CCN1C(=O)CC2(C1=O)C(=O)N(CCCOc1ccccc1OC)c1ccccc12 (stereo not drawn) [CBK075498]
viability at 28.5 h, 10 µM: 109%

CCN1C(=O)CC2(C1=O)C(=O)N(Cc1cccc(CN3C(=O)CCC3=O)c1)c1ccccc12 (stereo not drawn) [CBK075508]
viability at 28.5 h, 10 µM: 104%

CN1C(=O)CC2(C1=O)C(=O)N(CCCOc1ccc(F)cc1)c1ccccc12 (stereo not drawn) [CBK075513]
viability at 28.5 h, 10 µM: 108%

CCN1C(=O)CC2(C1=O)C(=O)N(CCCOc1ccccc1)c1ccc(OC)cc12 (stereo not drawn) [CBK075585]
viability at 28.5 h, 10 µM: 98%

CCN1C(=O)CC2(C1=O)C(=O)N(Cc1nnc(-c3ccc(C)cc3)o1)c1ccc(OC)cc12 (stereo not drawn) [CBK075586]
viability at 28.5 h, 10 µM: 90.4%

CCN1C(=O)CC2(C1=O)C(=O)N(CCCOc1ccc(Cl)cc1)c1ccc(C)cc12 (stereo not drawn) [CBK075648]
viability at 28.5 h, 10 µM: 109%

C=CCN1C(=O)CC2(C1=O)C(=O)N(CCCn1c(=O)c3c(ncn3C)n(C)c1=O)c1ccc(OC)cc12 (stereo not drawn) [CBK075701]
viability at 28.5 h, 10 µM: 93.6%

O=C1CCC(=O)N1CCN1C(=O)C2(CC(=O)N(Cc3ccccc3)C2=O)c2ccccc21 (stereo not drawn) [CBK075705]
viability at 28.5 h, 10 µM: 101%

Cn1cnc2c1c(=O)n(CCCN1C(=O)C3(CC(=O)N(Cc4ccccc4)C3=O)c3cc(F)ccc31)c(=O)n2C (stereo not drawn) [CBK075717]
viability at 28.5 h, 10 µM: 76%

COc1ccc2c(c1)C1(CC(=O)N(CC(=O)N(C)C)C1=O)C(=O)N2CCCN(C)S(C)(=O)=O (stereo not drawn) [CBK075889]
viability at 28.5 h, 10 µM: 118%

COc1ccc2c(c1)C1(CC(=O)N(CC(=O)N(C)C)C1=O)C(=O)N2CC(=O)c1ccccc1 (stereo not drawn) [CBK075913]
viability at 28.5 h, 10 µM: 96.9%

COc1ccc2c(c1)C1(CC(=O)N(CC(=O)N(C)C)C1=O)C(=O)N2Cc1ccc2ccccc2n1 (stereo not drawn) [CBK075923]
viability at 28.5 h, 10 µM: 93.7%

COc1cc(OC)nc(CN2C(=O)C3(CC(=O)N(CCCN4C(=O)c5ccccc5C4=O)C3=O)c3cc(C)ccc32)n1 (stereo not drawn) [CBK075992]
viability at 28.5 h, 10 µM: 91.5%

COc1cc(OC)nc(CN2C(=O)CC3(C2=O)C(=O)N(CCCN(C)C(=O)c2ccco2)c2ccc(F)cc23)n1 (stereo not drawn) [CBK076006]
viability at 28.5 h, 10 µM: 85.6%

COc1cccc(CN2C(=O)CC3(C2=O)C(=O)N(Cc2ccc4ccccc4n2)c2ccccc23)c1 (stereo not drawn) [CBK076016]
viability at 28.5 h, 10 µM: 96.2%

O=C1CCC(=O)N1CCN1C(=O)C2(CC(=O)N(CCC(F)(F)F)C2=O)c2ccccc21 (stereo not drawn) [CBK076031]
viability at 28.5 h, 10 µM: 105%

COc1ccc2c(c1)C1(CC(=O)N(CC(=O)N(C)OC)C1=O)C(=O)N2CCCCOc1ccccc1 (stereo not drawn) [CBK076032]
viability at 28.5 h, 10 µM: 92.6%

COc1ccc2c(c1)C1(CC(=O)N(Cc3ccccc3)C1=O)C(=O)N2CC(=O)O (stereo not drawn) [CBK076108]
viability at 28.5 h, 10 µM: 92.5%

CN1CCN(C(=O)c2ccc(-c3ccc4c(c3)OCO4)nc2NCc2cccnc2)CC1 [CBK076110]
viability at 28.5 h, 10 µM: 90.7%

O=C(NCCN1CCOCC1)c1ccc(-c2ccco2)nc1NCc1cccnc1 [CBK076112]
viability at 28.5 h, 10 µM: 101%

Cc1ccccc1-c1ccc(C(=O)NCCc2ccc(S(N)(=O)=O)cc2)c(NCc2cccnc2)n1 [CBK076116]
viability at 28.5 h, 10 µM: 98.4%

CN(C)C(=O)CN1C(=O)CC2(C1=O)C(=O)N(CC(=O)O)c1ccc(F)cc12 (stereo not drawn) [CBK076119]
viability at 28.5 h, 10 µM: 101%

Cc1ccccc1-c1ccc(C(=O)N2CCN(C)CC2)c(NCc2cccnc2)n1 [CBK076125]
viability at 28.5 h, 10 µM: 93.2%
